Assay results published in ChEMBL document CHEMBL1148679, “A novel iNOS and COX-2 inhibitor from the aerial parts of Rodgersia podophylla” (2006).

Assays:
Conditions in all cases: Mus musculus
RAW264.7 [1] = assay: Decrease in iNOS level in LPS-activated Raw 264.7 cells; format: functional, cell-based
RAW264.7 [2] = assay: Inhibition of iNOS expression in LPS-activated Raw 264.7 cells at 2 uM; format: functional
RAW264.7 [3] = assay: Inhibition of COX2 expression in LPS-activated Raw 264.7 cells at 3 uM; format: functional
RAW264.7 [4] = assay: Decrease in COX2 level in LPS-activated Raw 264.7 cells; format: functional, cell-based

C/C=C/c1ccc(Oc2ccc(O)cc2)c(C(C)CO)c1 (centres undefined) [RODGERSINOL]
Activity (RAW264.7 [1]): Dose-dependent effect
inhibition at 2 µM (RAW264.7 [2]): 50%
inhibition at 3 µM (RAW264.7 [3]): 50%
Activity (RAW264.7 [4]): Dose-dependent effect
